Key:
B. subtilis 168 [1] = experiment: fitness (endpoint OD595 vs no drug) (fraction); higher = more growth
How it was run: (§1)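 Growth medium was TSB, LB Lennox or CY, and plates were kept at 37 °C. Inoculation was at OD595 0.01 in 384-well plates, at 30 µl per well or 55 µl for S. pneumoniae. OD595 was monitored every 30 min for 14 h and background-subtracted using the first reading. Fitness is the optical density on entering stationary phase divided by the robust mean of no-drug controls, with values capped at 1.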

S. aureus DSM 20231 = experiment: Bliss interaction score (quartile over a dose matrix) (fitness difference); higher = more antagonism (negative = synergy)
How it was run: (§2)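 The Bliss score is observed minus expected fitness, where expected fitness is the product of the single-drug fitness values inferred from the combination data. Fitness is the OD595 at the onset of stationary phase over the plate's robust no-drug mean, capped at 1. Scores are summarised by quartiles over technical, biological and donor/recipient replicates.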

B. subtilis 168 [2] = experiment: as above
How it was run: as §2

S. aureus Newman = experiment: as above
How it was run: as §2

S. pneumoniae D39V [3] = experiment: as above
How it was run: as §2

S. pneumoniae D39V [4] = experiment: fitness (endpoint OD595 vs no drug) (fraction); higher = more growth
How it was run: as §1
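Wherever Bliss interaction score (quartile over a dose matrix) is given: first quartile when negative (synergy) and third quartile when positive (antagonism).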
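Wherever fitness (endpoint OD595 vs no drug) is given: OD595 on entry to stationary phase over no-drug wells; at most 1.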

CO/N=C(\C(=O)N[C@@H]1C(=O)N2C(C(=O)O)=C(COC(N)=O)CS[C@H]12)c1ccco1 [Cefuroxime] + C[C@H]1c2cccc(O)c2C(=O)C2=C(O)[C@]3(O)C(=O)C(C(N)=O)=C(O)[C@@H](N(C)C)[C@@H]3[C@@H](O)[C@@H]21 [Doxycycline]
fitness, B. subtilis 168 [1]
Settings	first compound 0.04875 µg/mL	first compound 0.0975 µg/mL	first compound 0.195 µg/mL
partner 0.02 µg/mL	0.663	0.603	0.514
partner 0.04 µg/mL	0.6	0.525	0.358
partner 0.08 µg/mL	0.174	0.14	0.12

fitness, B. subtilis 168 [1], one replicate
Settings	first compound 0.39 µg/mL	first compound 0.78 µg/mL	first compound 1.562 µg/mL	first compound 3.125 µg/mL	first compound 6.25 µg/mL
partner 0.02 µg/mL	0.488	0.451	0.441	0.424	0.393
partner 0.04 µg/mL	0.313	0.298	0.239	0.148	0.0995
partner 0.08 µg/mL	0.236	0.225	0.0559	0.0405	0.0345

Settings	Bliss interaction score
B. subtilis 168 [2]	0.105
S. aureus DSM 20231	-0.257
S. aureus Newman	-0.0377
S. pneumoniae D39V [3]	0.0445

O=C(O)c1cn(C2CC2)c2cc(N3CCNCC3)c(F)cc2c1=O [Ciprofloxacin] + CO[C@@H]1[C@@H](OC(N)=O)[C@@H](O)[C@H](Oc2ccc3c(O)c(NC(=O)c4ccc(O)c(CC=C(C)C)c4)c(=O)oc3c2C)OC1(C)C [Novobiocin]
fitness, B. subtilis 168 [1]
Settings	first compound 0.0098 µg/mL	first compound 0.0195 µg/mL	first compound 0.039 µg/mL
partner 0.0125 µg/mL	0.905	0.769	0.127
partner 0.025 µg/mL	0.92	0.723	0.034
partner 0.05 µg/mL	0.964	0.726	0.0487

fitness, B. subtilis 168 [1], one replicate
Settings	partner 0.1 µg/mL	partner 0.125 µg/mL	partner 0.2 µg/mL	partner 0.25 µg/mL	partner 0.5 µg/mL
first compound 0.0098 µg/mL	0.926	0.84	0.915	0.697	0.15
first compound 0.0195 µg/mL	0.727	0.78	0.71	0.448	0.066
first compound 0.039 µg/mL	0.127	0.0634	0.089	0.0302	0.0454

Settings	Bliss interaction score
B. subtilis 168 [2]	-0.183
S. aureus DSM 20231	-0.0685
S. aureus Newman	-0.115
S. pneumoniae D39V [3]	-0.161

O=C(O)c1cn(C2CC2)c2cc(N3CCNCC3)c(F)cc2c1=O [Ciprofloxacin] + COc1cc(Cc2cnc(N)nc2N)cc(OC)c1OC [Trimethoprim]
fitness, B. subtilis 168 [1], one replicate
Settings	partner 0.1 µg/mL	partner 0.2 µg/mL	partner 0.4 µg/mL	partner 1 µg/mL	partner 2 µg/mL
first compound 0.0098 µg/mL	0.863	0.721	0.516	0.342	0.321
first compound 0.0195 µg/mL	0.835	0.552	0.457	0.333	0.349
first compound 0.039 µg/mL	0.412	0.355	0.334	0.276	0.246

fitness, B. subtilis 168 [1]
Settings	first compound 0.0098 µg/mL	first compound 0.0195 µg/mL	first compound 0.039 µg/mL
partner 0.125 µg/mL	0.647	0.546	0.424
partner 0.25 µg/mL	0.547	0.428	0.355
partner 0.5 µg/mL	0.479	0.444	0.387

Settings	Bliss interaction score
B. subtilis 168 [2]	0.135
S. aureus DSM 20231	-0.106
S. aureus Newman	-0.165
S. pneumoniae D39V [3]	0.0557

COc1cccc2c1C(=O)c1c(O)c3c(c(O)c1C2=O)C[C@@](O)(C(=O)CO)C[C@@H]3O[C@H]1C[C@H](N)[C@H](O)[C@H](C)O1 [Doxorubicin] + CO[C@@H]1[C@@H](OC(N)=O)[C@@H](O)[C@H](Oc2ccc3c(O)c(NC(=O)c4ccc(O)c(CC=C(C)C)c4)c(=O)oc3c2C)OC1(C)C [Novobiocin]
fitness, B. subtilis 168 [1]
Settings	first compound 0.625 µg/mL	first compound 1.25 µg/mL	first compound 2.5 µg/mL
partner 0.0125 µg/mL	0.984	0.931	0.787
partner 0.025 µg/mL	0.971	0.893	0.727
partner 0.05 µg/mL	0.993	0.938	0.631

fitness, B. subtilis 168 [1], one replicate
Settings	partner 0.1 µg/mL	partner 0.125 µg/mL	partner 0.2 µg/mL	partner 0.25 µg/mL	partner 0.5 µg/mL
first compound 0.625 µg/mL	0.972	0.912	≥ 1	0.793	0.516
first compound 1.25 µg/mL	0.99	0.901	0.971	0.785	0.305
first compound 2.5 µg/mL	0.571	0.834	0.588	0.386	0.0091

Settings	Bliss interaction score
B. subtilis 168 [2]	0.0565
S. aureus DSM 20231	-0.0601
S. aureus Newman	-0.082
S. pneumoniae D39V [3]	-0.106

C[C@H]1c2cccc(O)c2C(=O)C2=C(O)[C@]3(O)C(=O)C(C(N)=O)=C(O)[C@@H](N(C)C)[C@@H]3[C@@H](O)[C@@H]21 [Doxycycline] + CO[C@@H]1[C@@H](OC(N)=O)[C@@H](O)[C@H](Oc2ccc3c(O)c(NC(=O)c4ccc(O)c(CC=C(C)C)c4)c(=O)oc3c2C)OC1(C)C [Novobiocin]
fitness, B. subtilis 168 [1]
Settings	first compound 0.02 µg/mL	first compound 0.04 µg/mL	first compound 0.08 µg/mL
partner 0.0125 µg/mL	0.885	0.808	0.466
partner 0.025 µg/mL	0.875	0.775	0.405
partner 0.05 µg/mL	0.978	0.775	–

fitness, B. subtilis 168 [1], one replicate
Settings	partner 0.1 µg/mL	partner 0.125 µg/mL	partner 0.2 µg/mL	partner 0.25 µg/mL	partner 0.5 µg/mL
first compound 0.02 µg/mL	≥ 1	0.861	0.979	0.963	0.623
first compound 0.04 µg/mL	0.874	0.787	0.895	0.712	0.547
first compound 0.08 µg/mL	0.675	0.341	0.71	0.103	0.0433

Settings	Bliss interaction score
B. subtilis 168 [2]	0.0575
S. aureus DSM 20231	0.0829
S. aureus Newman	0.0369
S. pneumoniae D39V [3]	0.0928

C[C@H]1c2cccc(O)c2C(=O)C2=C(O)[C@]3(O)C(=O)C(C(N)=O)=C(O)[C@@H](N(C)C)[C@@H]3[C@@H](O)[C@@H]21 [Doxycycline] + COc1cc(Cc2cnc(N)nc2N)cc(OC)c1OC [Trimethoprim]
fitness, B. subtilis 168 [1], one replicate
Settings	partner 0.1 µg/mL	partner 0.2 µg/mL	partner 0.4 µg/mL	partner 1 µg/mL	partner 2 µg/mL
first compound 0.02 µg/mL	0.84	0.754	0.616	0.346	0.259
first compound 0.04 µg/mL	0.683	0.51	0.391	0.234	0.146
first compound 0.08 µg/mL	0.362	0.222	0.156	0.0631	0.0715

fitness, B. subtilis 168 [1]
Settings	first compound 0.02 µg/mL	first compound 0.04 µg/mL	first compound 0.08 µg/mL
partner 0.125 µg/mL	0.695	0.659	0.52
partner 0.25 µg/mL	–	0.644	0.448
partner 0.5 µg/mL	–	0.412	0.262

Settings	Bliss interaction score
B. subtilis 168 [2]	0.0804
S. aureus DSM 20231	0.108
S. aureus Newman	0.028
S. pneumoniae D39V [3]	-0.108

C[C@@H]1O[C@@H]1P(=O)(O)O [Fosfomycin] + CO[C@@H]1[C@@H](OC(N)=O)[C@@H](O)[C@H](Oc2ccc3c(O)c(NC(=O)c4ccc(O)c(CC=C(C)C)c4)c(=O)oc3c2C)OC1(C)C [Novobiocin]
fitness, B. subtilis 168 [1]
Settings	first compound 1.562 µg/mL	first compound 3.124 µg/mL	first compound 6.248 µg/mL
partner 0.0125 µg/mL	0.712	0.609	0.44
partner 0.025 µg/mL	0.658	0.586	0.408
partner 0.05 µg/mL	0.792	0.69	0.47

fitness, B. subtilis 168 [1], one replicate
Settings	partner 0.1 µg/mL	partner 0.125 µg/mL	partner 0.2 µg/mL	partner 0.25 µg/mL	partner 0.5 µg/mL
first compound 1.562 µg/mL	0.746	0.785	0.793	0.7	0.12
first compound 3.124 µg/mL	0.698	0.782	0.691	0.637	0.0455
first compound 6.248 µg/mL	0.531	0.551	0.507	0.36	0.0252

Settings	Bliss interaction score
B. subtilis 168 [2]	-0.0536
S. aureus DSM 20231	0.1
S. aureus Newman	0.0635
S. pneumoniae D39V [3]	-0.102

Cc1ncc([N+](=O)[O-])n1CCO [Metronidazole] + CO[C@@H]1[C@@H](OC(N)=O)[C@@H](O)[C@H](Oc2ccc3c(O)c(NC(=O)c4ccc(O)c(CC=C(C)C)c4)c(=O)oc3c2C)OC1(C)C [Novobiocin]
fitness, B. subtilis 168 [1]
Settings	first compound 0.625 µg/mL	first compound 1.25 µg/mL	first compound 2.5 µg/mL
partner 0.0125 µg/mL	0.969	0.954	0.968
partner 0.025 µg/mL	0.998	0.977	0.986
partner 0.05 µg/mL	0.969	0.977	0.98

fitness, B. subtilis 168 [1], one replicate
Settings	first compound 0.625 µg/mL	first compound 1.25 µg/mL	first compound 2.5 µg/mL
partner 0.125 µg/mL	≥ 1	0.958	0.915
partner 0.25 µg/mL	0.923	0.916	0.908
partner 0.5 µg/mL	0.584	0.633	0.552

Settings	Bliss interaction score
B. subtilis 168 [2]	0.072
S. aureus DSM 20231	0.0355
S. aureus Newman	0.05
S. pneumoniae D39V [3]	0.126

COc1ccc(C[C@H](N)C(=O)N[C@H]2[C@@H](O)[C@H](n3cnc4c(N(C)C)ncnc43)O[C@@H]2CO)cc1 [Puromycin] + CO[C@H]1/C=C/O[C@@]2(C)Oc3c(C)c(O)c4c(O)c(c(/C=N/N5CCN(C)CC5)c(O)c4c3C2=O)NC(=O)/C(C)=C\C=C\[C@H](C)[C@H](O)[C@@H](C)[C@@H](O)[C@@H](C)[C@H](OC(C)=O)[C@@H]1C [Rifampicin]
S. pneumoniae D39V [4], partner 0.025 µg/mL, one replicate
Settings	fitness
first compound 1 µg/mL	0.914
first compound 2 µg/mL	0.856
first compound 4 µg/mL	0.691

fitness, S. pneumoniae D39V [4]
Settings	first compound 1 µg/mL	first compound 2 µg/mL	first compound 4 µg/mL
partner 0.05 µg/mL	0.747	0.753	–
partner 0.2 µg/mL	0.135	0.0783	0.0597

Settings	Bliss interaction score
B. subtilis 168 [2]	0.0301
S. aureus DSM 20231	0.0391
S. aureus Newman	0.0233
S. pneumoniae D39V [3]	-0.0708

CN(C)c1cc(NC(=O)CNC(C)(C)C)c(O)c2c1C[C@H]1C[C@H]3[C@H](N(C)C)C(O)=C(C(N)=O)C(=O)[C@@]3(O)C(O)=C1C2=O [Tigecycline] + COc1cc(Cc2cnc(N)nc2N)cc(OC)c1OC [Trimethoprim]
fitness, B. subtilis 168 [1], one replicate
Settings	partner 0.1 µg/mL	partner 0.125 µg/mL	partner 0.2 µg/mL	partner 0.25 µg/mL	partner 0.4 µg/mL	partner 0.5 µg/mL	partner 1 µg/mL	partner 2 µg/mL
first compound 0.039 µg/mL	0.879	0.739	0.77	–	0.58	–	0.505	0.438
first compound 0.078 µg/mL	0.896	0.727	0.754	–	0.577	–	0.455	0.408
first compound 0.125 µg/mL	–	0.898	–	0.749	–	0.694	–	–
first compound 0.156 µg/mL	0.883	0.758	0.814	–	0.546	–	0.402	0.357
first compound 0.25 µg/mL	–	0.798	–	0.546	–	0.55	–	–
first compound 0.5 µg/mL	–	0.87	–	0.695	–	0.633	–	–

fitness, B. subtilis 168 [1]
Settings	first compound 0.039 µg/mL	first compound 0.078 µg/mL	first compound 0.156 µg/mL
partner 0.25 µg/mL	0.657	0.653	0.677
partner 0.5 µg/mL	0.567	0.532	0.529

Settings	Bliss interaction score
B. subtilis 168 [2]	0.121
S. aureus DSM 20231	-0.0664
S. aureus Newman	-0.0503
S. pneumoniae D39V [3]	-0.119

Reference: the supplement of paper PMC10627819
